Experiments:
enkephalinase = molecular target: T1, enkephalinase (Rattus norvegicus, UniProt P07861); assay: Inhibitory activity against enkephalinase (Test 1); format: biochemical; conditions: for Inhibitory activity to enkephalinase ID50: partially purified enkephalinase from rat brain corpus striatum, substrate methionine-enkephaline, 37° C., 1 hour, HPLC of Tyr-Gly-Gly
T1 construct: homogenizing corpus striatum of rat brain and by partial purification of the brain homogenate; from tissue; host or cells: corpus striatum of rat brain
T1 sequence (P07861 2-750 limits assumed): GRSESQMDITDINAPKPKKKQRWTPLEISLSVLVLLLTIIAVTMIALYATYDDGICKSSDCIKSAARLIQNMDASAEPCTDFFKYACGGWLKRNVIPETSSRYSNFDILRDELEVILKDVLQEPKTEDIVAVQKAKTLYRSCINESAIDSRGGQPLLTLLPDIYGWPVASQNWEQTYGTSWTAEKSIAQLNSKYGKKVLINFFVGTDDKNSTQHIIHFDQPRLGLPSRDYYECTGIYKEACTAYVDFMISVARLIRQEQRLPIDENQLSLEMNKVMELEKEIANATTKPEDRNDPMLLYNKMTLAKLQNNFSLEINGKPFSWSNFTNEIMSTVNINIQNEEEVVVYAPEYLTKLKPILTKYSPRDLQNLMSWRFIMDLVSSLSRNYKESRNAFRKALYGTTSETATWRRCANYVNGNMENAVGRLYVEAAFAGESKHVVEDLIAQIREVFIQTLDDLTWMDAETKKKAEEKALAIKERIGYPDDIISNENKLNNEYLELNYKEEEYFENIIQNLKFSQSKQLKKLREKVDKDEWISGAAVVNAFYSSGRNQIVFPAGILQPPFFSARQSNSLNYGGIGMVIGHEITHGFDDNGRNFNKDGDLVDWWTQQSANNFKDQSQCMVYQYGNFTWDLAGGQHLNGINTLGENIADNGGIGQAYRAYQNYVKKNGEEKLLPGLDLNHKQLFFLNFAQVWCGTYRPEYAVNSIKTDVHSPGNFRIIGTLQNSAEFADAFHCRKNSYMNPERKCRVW
Method: To the solution of the test compound so prepared was added the enkephalinase, followed by incubation for five minutes at ambient temperature and further by addition of methionine-enkephaline as the substrate. The admixture so obtained was incubated at 37° C. for 1 hour and then subjected to a high-performance liquid chromatography in such a manner that the Tyr-Gly-GLy (a fragment of the methionine-enkephaline) formed by the enzymatic degradation of methionine-enkephaline was isolated in some fractions of the eluate and the quantity of Tyr-Gly-GLy was determined by an electro-chemically analysing detector.

Wistar rats = assay: Enhancement of morphine analgesia, tail-flick latency (Test 2); format: in vivo, rat
Method: To Wistar rats (10 week aged, male, body weight 250-300 g) was given intraperitoneally morphine at a dose of 0.5 mg/kg, and these rats receiving the morphine were classified into the group of morphine analgesia-effective rats and the group of morphine analgesia-non-effectiverats according to the classification method described in the "Showa Igakukai Zasshi" Vol. 39, No. 5, pages 537-542 (1979). […] The effect of analgesia was evaluated according to the method of tail-flick latency of rats described in the "Showa Igakukai Zasshi" Vol. 39, No. 5, pages 537-542 (1979). The evaluation of pain threshold of rats according to the tail-flick latency method was made as follows: Radiant heat stimulus was applied to the region of the rat tail which positioned 1 cm away from the tail tip and which had been colored black with a black-dye, and the time of latency involved in the tail flick, namely the period of time lapsing between the time of application of the heat stimulus and the time of the reflective flick response of the tail was measured. The quantity of the heat applied was so controlled that the average time of latency of the tail-flick response appearing in the control group of rats (receiving not the test compound but the morphine) was about 2.0 seconds. The tests were accomplished as long as the maximum value for the tail-flick latency was 7.0 seconds or less, as otherwise the skin of the rat tail could be damaged by the application of heat. In other words, if the time for the tail-flick latency was longer than 7.0 seconds, the tests were stopped to prevent the damage of the rat tail. The radiant heat stimulus was repeated 5 times for each test rat at an interval of 15 minutes and the times of latency in the flick response of the tail measured in each test were averaged. In each test, 5 rats were used.
The difference in the time of the tail-flick latency between the test rats (receiving 250 mg/kg of the test compound plus 0.5 mg/kg of morphine) and the control rats (receiving 0.5 mg/kg of morphine alone) was calculated, and the effect for enhancement of morphine analgesia was estimated in term of the value of percentages which were calculated by the following equation: [formula]

ICR-strain mice = conditions: 2 g/kg intraperitoneally, 6 mice per group
rats = assay: Analgesic activity of test compound administered alone intracisternally, tail-flick latency (Test 3); format: in vivo, rat; conditions: for Analgesic activity (%) (increase in tail-flick latency): no morphine
Method: Analgesic activity was evaluated in term of the value of percentages of increase in the tail-flick latency of the test rats receiving the test compound, as compared to the control rats receiving no test compound.
The test as above was repeated with 2 mcg/kg of naloxone (a specific antogonizer to morphine) being intraperitoneally given into the test rats simultaneously to the intracisternal administration of the bestatin-related compound under test.

[1] = 250 mg/kg test compound i.p. + 0.5 mg/kg morphine i.p., morphine analgesia-non-effective rats, versus 0.5 mg/kg morphine alone

Structure (SMILES): CSCC[C@H](NC(=O)[C@@H](O)[C@H](N)Cc1ccccc1)C(=O)O [Compound 7, (2S,3R)-3-amino-2-hydroxy-4-phenylbutanoyl-(S)-methionine]
- Inhibitory activity to enkephalinase ID50 (enkephalinase): 2.78 milimol
- Analgesia enhancement (%) (Wistar rats; [1]): 10.5%

Structure (SMILES): CC(C)C[C@H](NC(=O)[C@H](O)[C@H](N)Cc1ccccc1)C(=O)O [Compound 2, (2S,3R)-3-amino-2-hydroxy-4-phenylbutanoyl-(R)-leucine]
- Inhibitory activity to enkephalinase ID50 (enkephalinase): 2.40 milimol
- Analgesia enhancement (%) (Wistar rats; [1]): 24.9%

Structure (SMILES): CC(C)C[C@H](NC(=O)[C@H](O)[C@H](N)Cc1ccc(O)cc1)C(=O)O [Compound 9, (2S,3R)-3-amino-2-hydroxy-4-p-hydroxyphenylbutanoyl-(R)-leucine]
- Inhibitory activity to enkephalinase ID50 (enkephalinase): 20.68 milimol
- Analgesia enhancement (%) (Wistar rats; [1]): 23.1%

Structure (SMILES): CC(C)C[C@H](NC(=O)[C@@H](O)[C@H](N)Cc1ccccc1)C(=O)N[C@H](CC(C)C)C(=O)O [Compound 11, (2S,3R)-3-amino-2-hydroxy-4-phenylbutanoyl-(S)-leucyl-(R)-leucine]
- Inhibitory activity to enkephalinase ID50 (enkephalinase): 0.95 milimol
- Analgesia enhancement (%) (Wistar rats; [1]): 5.2%

Structure (SMILES): N[C@H](Cc1ccccc1)[C@H](O)C(=O)NCC(=O)O [Compound 14, (2S,3R)-3-amino-2-hydroxy-4-phenylbutanoyl-glycine]
- Analgesia enhancement (%) (Wistar rats; [1]): 19.1%

Structure (SMILES): C[C@H](NC(=O)[C@H](O)[C@H](N)Cc1ccccc1)C(=O)O [Compound 4, (2S,3R)-3-amino-2-hydroxy-4-phenylbutanoyl-(R)-alanine]
- Inhibitory activity to enkephalinase ID50 (enkephalinase): 5.98 milimol
- Acute toxicity (survival) (ICR-strain mice): all the mice receiving 2 g/kg of AHPA-D-Ala survived

Structure (SMILES): NC(=O)C[C@H](NC(=O)[C@H](O)[C@H](N)Cc1ccccc1)C(=O)O [Compound 13, (2S,3R)-3-amino-2-hydroxy-4-phenylbutanoyl-(R)-asparagine]
- Inhibitory activity to enkephalinase ID50 (enkephalinase): 3.12 milimol

Structure (SMILES): CN1CC[C@]23c4c5ccc(O)c4O[C@H]2[C@@H](O)C=C[C@H]3[C@H]1C5 [Morphine, reference compound]
- Analgesia enhancement (%) (Wistar rats; comparative: morphine 0.5 mg/kg alone (control reference)): 0%
- Analgesia enhancement (%) (Wistar rats; comparative: morphine 2 mg/kg alone): 28.4%
- Analgesia enhancement (%) (Wistar rats; comparative: morphine 3 mg/kg alone): 35.1%

Structure (SMILES): N[C@H](Cc1ccc(O)cc1)[C@H](O)C(=O)N[C@H](Cc1ccccc1)C(=O)O [Compound 10, (2S,3R)-3-amino-2-hydroxy-4-p-hydroxyphenylbutanoyl-(R)-phenylalanine]
- Analgesia enhancement (%) (Wistar rats; [1]): 27.0%

Structure (SMILES): N=C(N)NCCC[C@H](NC(=O)[C@H](O)[C@H](N)Cc1ccccc1)C(=O)O [Compound 5, (2S,3R)-3-amino-2-hydroxy-4-phenylbutanoyl-(R)-arginine]
- Inhibitory activity to enkephalinase ID50 (enkephalinase): 0.063 milimol
- Activity to inhibit enkephalinase in vitro (in words) (enkephalinase; summary statement): high activity to inhibit enkephalinase
- Analgesia enhancement (%) (Wistar rats; [1]): 13.6%
- Enhancement of the analgesic activity of morphine (in words) (Wistar rats; summary statement): not significantly effective
- Analgesic activity (%) (increase in tail-flick latency) (rats; dose 60 mcg intracisternally): 134.0%
- Analgesic activity when administered intracisternally in the brain (in words) (rats; summary statement): high analgesic activity

Structure (SMILES): CSCC[C@H](NC(=O)[C@H](O)[C@H](N)Cc1ccccc1)C(=O)O [Compound 6, (2S,3R)-3-amino-2-hydroxy-4-phenylbutanoyl-(R)-methionine]
- Inhibitory activity to enkephalinase ID50 (enkephalinase): 2.54 milimol
- Analgesia enhancement (%) (Wistar rats; [1]): 14.7%

Structure (SMILES): CC(C)C[C@H](NC(=O)[C@@H](O)[C@H](N)Cc1ccccc1)C(=O)O [Compound 1, (2S,3R)-3-amino-2-hydroxy-4-phenylbutanoyl-(S)-leucine]
- Inhibitory activity to enkephalinase ID50 (enkephalinase): 0.62 milimol
- Analgesia enhancement (%) (Wistar rats; [1]): 19.5%

Structure (SMILES): N[C@H](Cc1ccccc1)[C@H](O)C(=O)O [Compound 15, (2S,3R)-3-amino-2-hydroxy-4-phenylbutanoic acid]
- Analgesia enhancement (%) (Wistar rats; [1]): 14.1%

Structure (SMILES): CC(C)C[C@H](NC(=O)[C@@H](O)[C@H](N)Cc1ccc(O)cc1)C(=O)O [Compound 8, (2S,3R)-3-amino-2-hydroxy-4-p-hydroxyphenylbutanoyl-(S)-leucine]
- Inhibitory activity to enkephalinase ID50 (enkephalinase): 0.37 milimol
- Analgesia enhancement (%) (Wistar rats; [1]): 34.5%
- Analgesic activity (%) (increase in tail-flick latency) (rats; dose 500 mcg intracisternally): 47.0%

Structure (SMILES): N[C@H](Cc1ccccc1)[C@H](O)C(=O)NCCC(=O)O [Compound 12, (2S,3R)-3-amino-2-hydroxy-4-phenylbutanoyl-β-alanine]
- Analgesia enhancement (%) (Wistar rats; [1]): 12.0%

Structure (SMILES): N[C@H](Cc1ccccc1)[C@H](O)C(=O)N[C@H](CCC(=O)O)C(=O)O [Compound 3, (2S,3R)-3-amino-2-hydroxy-4-phenylbutanoyl-(R)-glutamic]
- Inhibitory activity to enkephalinase ID50 (enkephalinase): 30.86 milimol

— patent US4395402A, “Analgesic agent” (Zaidan Hojin Biseibutsu Kagaku Kankyu Kai, priority 1980, dated 1983)
